Key:
[1] = molecular target: T1, human recombinant 5-HT2C receptor (Homo sapiens, UniProt P28335); test: Test Example 2-2: 5-HT2C receptor binding inhibition test ([3H]-Mesulergine; non-specific ligand Ketanserin); settings: non-specific binding with 500 µmol/L Ketanserin, 37°C, 2 hours
T1 construct: expressed in transfected cells; host or cells: Jump-In HEK cells (membrane preparation)
T1 sequence (P28335 33-458): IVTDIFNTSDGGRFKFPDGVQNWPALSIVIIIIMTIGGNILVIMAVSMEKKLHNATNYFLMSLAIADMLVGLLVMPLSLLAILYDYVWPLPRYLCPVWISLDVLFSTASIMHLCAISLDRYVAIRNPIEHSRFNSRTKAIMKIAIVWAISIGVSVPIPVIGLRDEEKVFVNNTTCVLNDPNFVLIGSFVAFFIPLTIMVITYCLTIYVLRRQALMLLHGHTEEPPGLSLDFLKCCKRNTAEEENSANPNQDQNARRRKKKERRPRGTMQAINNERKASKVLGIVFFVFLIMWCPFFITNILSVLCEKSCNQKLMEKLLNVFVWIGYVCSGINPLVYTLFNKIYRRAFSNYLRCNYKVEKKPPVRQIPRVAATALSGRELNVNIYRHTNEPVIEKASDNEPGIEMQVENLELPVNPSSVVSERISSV
Summary of the method: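 Membranes expressing the receptor were incubated with compound and [3H]-Mesulergine for 2 h at 37 °C, then filtered and counted by scintillation. Non-specific binding was defined with 500 µmol/L Ketanserin. Percent inhibition versus vehicle gave dose-response curves, from which Ki was derived using a Kd from Scatchard saturation analysis.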

[2] = molecular target: T2, human ether-a-go-go related gene (hERG) channel (Homo sapiens, UniProt Q12809); test: Test Example 3-2: hERG test (FluxORII thallium flux, FLIPR, 4000 cells/well); format: cell-based; settings: CHO cells expressing hERG channel, compound reacted for 10 minutes, 100% inhibition = E-4031 10.3 µmol/L
T2 construct: expressed in transfected cells; host or cells: CHO cells
T2 sequence (Q12809 whole entry): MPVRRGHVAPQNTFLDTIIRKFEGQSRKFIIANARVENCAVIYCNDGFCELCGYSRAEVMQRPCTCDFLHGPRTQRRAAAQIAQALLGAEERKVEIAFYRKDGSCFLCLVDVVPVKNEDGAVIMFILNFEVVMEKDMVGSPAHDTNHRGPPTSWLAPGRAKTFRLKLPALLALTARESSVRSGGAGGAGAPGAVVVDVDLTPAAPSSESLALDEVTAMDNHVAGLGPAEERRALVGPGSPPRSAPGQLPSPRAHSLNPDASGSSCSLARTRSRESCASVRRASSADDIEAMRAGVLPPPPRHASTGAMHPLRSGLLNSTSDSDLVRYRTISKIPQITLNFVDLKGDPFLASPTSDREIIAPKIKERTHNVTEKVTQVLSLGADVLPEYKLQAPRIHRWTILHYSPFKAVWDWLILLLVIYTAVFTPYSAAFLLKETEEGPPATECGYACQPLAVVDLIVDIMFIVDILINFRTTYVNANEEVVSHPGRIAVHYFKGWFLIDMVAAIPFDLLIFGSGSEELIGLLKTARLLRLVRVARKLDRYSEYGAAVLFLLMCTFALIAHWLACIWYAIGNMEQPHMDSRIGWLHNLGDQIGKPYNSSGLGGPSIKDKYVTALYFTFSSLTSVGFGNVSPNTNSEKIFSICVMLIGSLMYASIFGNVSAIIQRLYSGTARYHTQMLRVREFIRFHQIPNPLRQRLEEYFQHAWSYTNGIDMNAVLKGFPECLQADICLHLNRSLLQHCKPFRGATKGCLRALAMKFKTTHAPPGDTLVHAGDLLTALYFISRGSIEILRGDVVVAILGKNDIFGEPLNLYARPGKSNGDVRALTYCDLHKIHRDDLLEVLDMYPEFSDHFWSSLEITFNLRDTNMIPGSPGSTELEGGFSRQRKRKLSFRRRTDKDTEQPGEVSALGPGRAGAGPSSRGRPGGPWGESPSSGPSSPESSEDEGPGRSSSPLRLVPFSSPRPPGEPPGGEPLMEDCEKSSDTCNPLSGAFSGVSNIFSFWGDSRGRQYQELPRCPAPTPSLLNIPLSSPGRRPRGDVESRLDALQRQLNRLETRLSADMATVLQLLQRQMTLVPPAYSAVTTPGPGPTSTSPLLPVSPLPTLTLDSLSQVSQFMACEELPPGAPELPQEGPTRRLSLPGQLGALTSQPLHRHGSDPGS
Description: For the purpose of evaluating risk of an electrocardiogram QT interval prolongation of the compound of the present invention, effects of the compound are studied by evaluating the activity of potassium channel using CHO cells expressing human ether-a-go-go related gene (hERG) channel.
Evaluation is performed using a FluxORII Green Potassium Ion Channel Assay kit (Invitrogen: Molecular Probes).
Cells (4000 cells/well/40 µL) are seeded in a 384 assay plate, and are incubated overnight (37°C, 5% CO2). After replacing the medium with a Wash buffer (lxHBSS, 20 mM HEPES) with a microplate washer, a fluorescent indicator is added to the medium and allowed to incubate (37°C, 5% CO2) for 1 hour for incorporation of the fluorescent indicator into cells.
A cell plate is placed on a cell-based kinetic assay system FLIPR (Molecular Devices, LLC.), and the compound is added to the cells so as to have a desired concentration and reacted for 10 minutes. When a mixed solution of potassium and thallium as a stimulator is added thereto, the potassium channel is opened, and thallium that flowed into the cells binds to the fluorescent indicator, so that the intracellular fluorescence signal increases, and the potassium channel current is detected as a fluorescence signal. […] Then, the inhibition rate is calculated from the signal intensity at each concentration. IC50 is calculated from the inhibition rate at each concentration.

Ki [1] [nM] | Structure (SMILES) | IC50 [2] [nM]
0.822 | Cc1cnn(C)c1-c1cc(Nc2ncc(C(F)(F)F)cc2F)ccc1OCCO [Compound I-008] | 
3.47 | Cn1ncc(F)c1-c1cc(Nc2ncc(C(F)(F)F)cc2F)cnc1OCCO [Compound I-127] | > 52000
 | COCc1nc(C)c(-c2cc(Nc3ncc(OC(F)(F)F)cc3Cl)ncc2OCCO)c(C)n1 [Compound I-200] | > 52000

Structure (SMILES) | Ki [1] [nM] | IC50 [2] [nM]
Cn1ncc(Br)c1-c1cc(Nc2ncc(C(F)(F)F)cc2F)ccc1OCCO [Compound I-006] | 0.271 | > 52000
